From US20230132133A1, “METHODS AND COMPOSITIONS FOR THE TREATMENT OF C. DIFFICILE” (priority 2018, published 2023)
In brackets after ≈: the same amount, converted by molar mass.

How the values were obtained:
Assay type in all cases: cell-based, Bacillus amyloliquefaciens
[1] = system: B. amyloliquefaciens ART24; test: Antibiotic MIC following EFSA testing recommendations on lyophilized ART24 lots and cell banks; conditions: for MIC: Bacillus amyloliquefaciens, read-out: MIC for ART24
Description: The minimum inhibitory concentration (MIC) of the listed antimicrobials is expressed as µg/mL.

[2] = system: B. amyloliquefaciens ART4; test: Antibiotic MIC, VetMIC Lact-1 & Lact-2 panels; conditions: Bacillus amyloliquefaciens, ART4; average results from N= 6; 24 hr at 37° C.
Method: (§1) The wells of the prefabricated 96-well plates were filled with 100 μL of the final suspension. The plates were sealed with an […], Sigma Aldrich) sealing film (to facilitate growth of the aerobic Bacillus strains. The plates were then incubated for 24 hr at 37° C. The results are recorded after 24 hours as the lowest concentration of the antibiotic to inhibit visible growth. The prefabricated panels […], Uppsala, Sweden) comprising the antibiotics ampicillin, vancomycin, gentamicin, kanamycin, streptomycin, erythromycin, clindamycin, tetracycline, chloramphenicol, neomycin, penicillin, quinupristin-dalfopristin, linezolid, trimethoprim, ciprofloxacin and rifampicin were used.

[3] = system: B. amyloliquefaciens ART24; test: Antibiotic MIC, VetMIC Lact-1 & Lact-2 panels; conditions: Bacillus amyloliquefaciens, ART24; average results from N= 6; 24 hr at 37° C.
Method: as §1

[4] = system: B. amyloliquefaciens ART12; test: Antibiotic MIC, VetMIC Lact-1 & Lact-2 panels; conditions: Bacillus amyloliquefaciens, ART12; average results from N= 6; 24 hr at 37° C.
Method: as §1

SMILES	MIC ([1]; ART24, source CO-33-12A2)	MIC ([1]; ART24, source CO-33 ART 24 BHI)	MIC ([1]; ART24, source CO-33 ART 024 S)	MIC ([1]; ART24, source YD CO-33-10A2)	MIC interpretation for ART24 ([1]; source CO-33-12A2)	MIC interpretation for ART24 ([1]; source CO-33 ART 24 BHI)	MIC interpretation for ART24 ([1]; source CO-33 ART 024 S)	MIC interpretation for ART24 ([1]; source YD CO-33-10A2)	MIC [2]	MIC [3]	MIC [4]
CC1(C)S[C@@H]2[C@H](NC(=O)[C@H](N)c3ccccc3)C(=O)N2[C@H]1C(=O)O [Ampicillin]	≤ 0.03 µg/mL	≤ 0.03 µg/mL	≤ 0.03 µg/mL	≤ 0.03 µg/mL	S	S	S	S	0.12 µg/mL (≈ 0.343 µM)	0.25 µg/mL (≈ 0.715 µM)	0.25 µg/mL (≈ 0.715 µM)
O=C(N[C@H](CO)[C@H](O)c1ccc([N+](=O)[O-])cc1)C(Cl)Cl [Chloramphenicol]	2 µg/mL (≈ 6.19 µM)	2 µg/mL (≈ 6.19 µM)	2 µg/mL (≈ 6.19 µM)	2 µg/mL (≈ 6.19 µM)	S	S	S	S	2 µg/mL (≈ 6.19 µM)	4 µg/mL (≈ 12.4 µM)	4 µg/mL (≈ 12.4 µM)
O=C(O)c1cn(C2CC2)c2cc(N3CCNCC3)c(F)cc2c1=O [Ciprofloxacin]	≤ 0.03 µg/mL	≤ 0.03 µg/mL	≤ 0.03 µg/mL	≤ 0.03 µg/mL	S	S	S	S	≤ 0.25 µg/mL	≤ 0.25 µg/mL	≤ 0.25 µg/mL
CCC[C@@H]1C[C@@H](C(=O)N[C@@H]([C@H]2O[C@H](SC)[C@H](O)[C@@H](O)[C@H]2O)[C@H](C)Cl)N(C)C1 [Clindamycin]	0.25 µg/mL (≈ 0.588 µM)	0.25 µg/mL (≈ 0.588 µM)	0.25 µg/mL (≈ 0.588 µM)	0.12 µg/mL (≈ 0.282 µM)	S	S	S	S	0.5 µg/mL (≈ 1.18 µM)	0.5 to 1 µg/mL (≈ 1.18 to 2.35 µM)	1 µg/mL (≈ 2.35 µM)
CC[C@H]1OC(=O)[C@H](C)[C@@H](O[C@H]2C[C@@](C)(OC)[C@@H](O)[C@H](C)O2)[C@H](C)[C@@H](O[C@@H]2O[C@H](C)C[C@H](N(C)C)[C@H]2O)[C@](C)(O)C[C@@H](C)C(=O)[C@H](C)[C@@H](O)[C@]1(C)O [Erythromycin]	0.06 µg/mL (≈ 0.0818 µM)	0.12 µg/mL (≈ 0.164 µM)	0.12 µg/mL (≈ 0.164 µM)	0.06 µg/mL (≈ 0.0818 µM)	S	S	S	S	0.12 µg/mL (≈ 0.164 µM)	0.12 µg/mL (≈ 0.164 µM)	0.12 µg/mL (≈ 0.164 µM)
NC[C@H]1O[C@H](O[C@H]2[C@H](O)[C@@H](O[C@H]3O[C@H](CO)[C@@H](O)[C@H](N)[C@H]3O)[C@H](N)C[C@@H]2N)[C@H](O)[C@@H](O)[C@@H]1O [Kanamycin]	≤ 0.5 µg/mL	≤ 0.5 µg/mL	≤ 0.5 µg/mL	≤ 0.5 µg/mL	S	S	S	S	≤ 2 µg/mL	≤ 2 µg/mL	≤ 2 µg/mL
CC(=O)NC[C@H]1CN(c2ccc(N3CCOCC3)c(F)c2)C(=O)O1 [Linezolid]	0.5 µg/mL (≈ 1.48 µM)	0.5 µg/mL (≈ 1.48 µM)	0.5 µg/mL (≈ 1.48 µM)	0.25 µg/mL (≈ 0.741 µM)					0.5 µg/mL (≈ 1.48 µM)	0.5 µg/mL (≈ 1.48 µM)	0.5 µg/mL (≈ 1.48 µM)
CO[C@H]1/C=C/O[C@@]2(C)Oc3c(C)c(O)c4c(O)c(c(/C=N/N5CCN(C)CC5)c(O)c4c3C2=O)NC(=O)/C(C)=C\C=C\[C@H](C)[C@H](O)[C@@H](C)[C@@H](O)[C@@H](C)[C@H](OC(C)=O)[C@@H]1C [Rifampicin]	0.25 µg/mL (≈ 0.304 µM)	0.25 µg/mL (≈ 0.304 µM)	0.25 µg/mL (≈ 0.304 µM)	0.25 µg/mL (≈ 0.304 µM)	S	S	S	S	0.25 µg/mL (≈ 0.304 µM)	0.5 µg/mL (≈ 0.608 µM)	0.5 µg/mL (≈ 0.608 µM)
